# Publication PMC6009965, “α-Glucosidase inhibition by flavonoids: an in vitro and in silico structure–activity relationship study” (Journal of Enzyme Inhibition and Medicinal Chemistry, 2017)
# Like-named read-outs stand apart in the source and are kept apart here.
# Tests used:
# yeast α-glucosidase = target: T1, yeast α-glucosidase (Saccharomyces cerevisiae, UniProt P53341); assay: Inhibitory kinetic analysis (Michaelis–Menten, Lineweaver–Burk plots); type: biochemical; conditions: for Type of inhibition: pNPG 300, 600 and 1200 μM
# T1 construct: purchased Sigma-Aldrich Co. LLC (St. Louis, MO)
# Method: Briefly, the enzyme (0.05 U/mL), dissolved in 100 mM phosphate buffer (pH 6.8), was pre-incubated at 37 °C with the above mentioned flavonoids in a 96-well plate, for 5 min. In sequence, pNPG was added (300, 600 and 1200 μM) and incubated in the reaction mixture at 37 °C for 30 min.
# The study of the inhibition type (competitive, uncompetitive, non-competitive or mixed) of the tested flavonoids was performed using the nonlinear regression Michaelis–Menten enzyme kinetics and the corresponding Lineweaver–Burk double reciprocal plots for each concentration of the inhibitor and substrate. The Ki values were calculated with GraphPad Software 6.0 by plotting the reciprocal of maximum velocity (1/V max) (y axis) against the flavonoid concentrations (x axis) (Table 2)[38–40].
# The type of inhibition parameters were all calculated with GraphPad Software 6.0. The obtained results represent at least three independent experiments.
# α-glucosidase = conditions: cited from earlier work; for Activity against α-glucosidase catalytic activity: ref Gao et al. 27
# [1] = target: T2, α-glucosidase from Saccharomyces cerevisiae (Saccharomyces cerevisiae, UniProt P53341); assay: biochemical
# T2 construct: purchased Sigma-Aldrich Co. LLC (St. Louis, MO)
# Method: Compounds A1, A2, A3, A4, A5, A6, B1, B2, B3, B4, C1, C2, C3, C4, C5, C6, C8, C9, D1 (chrysin), D2 (galangin) and D5 were obtained from Indofine Chemical Company, Inc. (Hillsborough, NJ). The flavonoids C7, C10, C11, C12, C13, D10, D11, D12, D13, D14 and D17 were synthesised as previously described. For the enzymatic assays, flavonoids were dissolved in DMSO (the final concentration of DMSO in the reactional mixture was 4.76%).
# The α-glucosidase activity was measured using a method of Tadera et al.[31] slightly modified. The assay was carried out by monitoring the α-glucosidase-mediated transformation of the substrate pNPG into α-D-glucose and p-nitrophenol, at 405 nm. Briefly, in a 96-well plate, the enzyme (0.05 U/mL), dissolved in 100 mM phosphate buffer (pH 6.8), was pre-incubated at 37 °C for 5 min with the flavonoids (0–200 μM). In sequence, pNPG was added (600 μM) and incubated in the reaction mixture at 37 °C for 30 min. The enzymatic reaction was monitored spectrophotometrically, in a microplate reader (Synergy HT, BIO-TEK), by measuring the absorbance at 405 nm. The obtained values correspond to the slope measured between 5 and 20 min. […] The obtained results represent at least three independent experiments.
# [2] = read-out: Inhibitory activity at the highest tested concentration
# [3] = enzyme 0.05 U/mL, pNPG 600 μM, pH 6.8, 37 °C, mean ± SEM, read-out: IC50
# [4] = mean ± SEM, from 1/Vmax vs flavonoid concentration, read-out: Ki
# T2 sequence (P53341 whole entry): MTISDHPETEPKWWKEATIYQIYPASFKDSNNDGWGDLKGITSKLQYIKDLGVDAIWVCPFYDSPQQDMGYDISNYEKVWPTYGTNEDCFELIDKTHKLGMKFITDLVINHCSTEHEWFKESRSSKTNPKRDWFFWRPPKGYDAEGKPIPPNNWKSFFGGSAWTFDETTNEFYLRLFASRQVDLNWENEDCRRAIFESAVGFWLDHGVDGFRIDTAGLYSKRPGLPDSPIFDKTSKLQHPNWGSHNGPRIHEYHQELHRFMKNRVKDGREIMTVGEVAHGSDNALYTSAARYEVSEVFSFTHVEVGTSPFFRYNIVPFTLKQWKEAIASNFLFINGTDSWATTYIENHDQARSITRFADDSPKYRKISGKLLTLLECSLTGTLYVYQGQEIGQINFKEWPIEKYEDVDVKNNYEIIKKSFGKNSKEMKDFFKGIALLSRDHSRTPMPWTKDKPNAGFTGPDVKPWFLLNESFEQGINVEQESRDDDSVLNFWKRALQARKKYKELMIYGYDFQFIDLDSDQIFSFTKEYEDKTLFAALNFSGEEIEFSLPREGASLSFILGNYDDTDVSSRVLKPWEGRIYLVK
# T1 sequence (P53341 whole entry): as above
compound,measurement,setting,value
"C[C@H]1O[C@H](O[C@H]2[C@H](O)[C@@H](O)[C@@H](O[C@H]3[C@H](O)[C@@H](O)C(O)O[C@@H]3CO)O[C@@H]2CO)[C@H](O)[C@@H](O)[C@@H]1N[C@H]1C=C(CO)[C@@H](O)[C@H](O)[C@H]1O (stereo partly drawn) [Acarbose, reference compound]",Type of inhibition,yeast α-glucosidase,Competitive
same,Type of inhibition,"α-glucosidase; ref Kim et al. 68, Lopez et al. 69",competitive
same,Type of inhibition,α-glucosidase; ref Son et al. 70,mixed type of inhibition
"O=c1cc(-c2ccccc2)oc2ccccc12 [Compound A1, Flavone]",Inhibitory activity against α-glucosidase (in words),[1],not able to inhibit α-glucosidase
same,inhibition at 200 µM,[1]; [2],< 20%
O=c1cc(-c2cccc(O)c2)oc2ccccc12 [Compound A2],Inhibitory activity against α-glucosidase (in words),[1],low or no inhibitory activity
same,inhibition at 200 µM,[1]; [2],< 20%
O=c1cc(-c2ccc(O)cc2)oc2ccccc12 [Compound A3],Inhibitory activity against α-glucosidase (in words),[1],low or no inhibitory activity
same,inhibition at 200 µM,[1]; [2],< 20%
O=c1cc(-c2ccc(O)c(O)c2)oc2ccccc12 [Compound A4],Inhibitory activity against α-glucosidase (in words),[1],low or no inhibitory activity
same,inhibition at 200 µM,[1]; [2],32 ± 4%
O=c1c(O)c(-c2ccc(O)c(O)c2)oc2ccccc12 [Compound A5],Ki,yeast α-glucosidase,41 ± 7 µM
same,Type of inhibition,yeast α-glucosidase,Mixed
same,IC50,[1]; [3],54 ± 3 µM
COc1ccc(-c2oc3ccccc3c(=O)c2O)cc1OC [Compound A6],IC50,[1]; [3],> 100 µM
same,inhibition at 100 µM,[1]; [2],< 20%
O=c1cc(-c2ccccc2)oc2cccc(O)c12 [Compound B1],inhibition at 200 µM,[1]; [2],< 20%
same,Activity against α-glucosidase catalytic activity,α-glucosidase,no activity
O=c1cc(-c2cccc(O)c2)oc2cccc(O)c12 [Compound B2],inhibition at 200 µM,[1]; [2],31 ± 4%
O=c1cc(-c2ccc(O)cc2)oc2cccc(O)c12 [Compound B3],Ki,yeast α-glucosidase,127 ± 9 µM
same,Type of inhibition,yeast α-glucosidase,Mixed
same,IC50,[1]; [3],66 ± 2 µM
O=c1cc(-c2ccc(O)c(O)c2)oc2cccc(O)c12 [Compound B4],IC50,[1],66 ± 7 µM
O=c1cc(-c2ccccc2)oc2cc(O)ccc12 [Compound C1],IC50,[1],> 200 µM
same,inhibition at 200 µM,[1]; [2],< 20%
same,Activity against α-glucosidase catalytic activity,α-glucosidase,no activity
O=c1cc(-c2cccc(O)c2)oc2cc(O)ccc12 [Compound C2],IC50,[1]; [3],53 ± 4 µM
O=c1cc(-c2ccc(O)cc2)oc2cc(O)ccc12 [Compound C3],IC50,[1]; [3],~200 µM
O=c1c(O)c(-c2cccc(O)c2)oc2cc(O)ccc12 [Compound C4],IC50,[1]; [3],42 ± 4 µM
O=c1c(O)c(-c2ccc(O)cc2)oc2cc(O)ccc12 [Compound C5],IC50,[1]; [3],96 ± 10 µM
O=c1cc(-c2ccc(O)c(O)c2)oc2cc(O)ccc12 [Compound C6],IC50,[1]; [3],95 ± 7 µM
O=c1c(O)c(-c2ccc(O)c(O)c2)oc2c(O)c(O)ccc12 [Compound C7],Ki,yeast α-glucosidase,6.5 ± 0.2 µM
same,Type of inhibition,yeast α-glucosidase,Competitive
same,IC50,[1]; [3],7.6 ± 0.4 µM
COc1cccc(-c2oc3cc(OC)ccc3c(=O)c2O)c1 [Compound C8],inhibition at 100 µM,[1]; [2],22 ± 2%
COc1ccc(-c2oc3cc(OC)ccc3c(=O)c2O)cc1 [Compound C9],inhibition at 200 µM,[1]; [2],< 20%
COc1ccc2c(=O)c(O)c(-c3ccc(O)c(O)c3)oc2c1OC [Compound C10],IC50,[1],86 ± 6 µM
COc1ccc(-c2oc3c(O)c(O)ccc3c(=O)c2O)cc1OC [Compound C11],inhibition at 200 µM,[1]; [2],31 ± 3%
COc1ccc2c(=O)c(O)c(-c3ccc(OCc4ccccc4)c(OCc4ccccc4)c3)oc2c1OC [Compound C12],inhibition at 200 µM,[1]; [2],< 20%
COc1ccc(-c2oc3c(OCc4ccccc4)c(OCc4ccccc4)ccc3c(=O)c2O)cc1OC [Compound C13],inhibition at 200 µM,[1]; [2],32 ± 3%
"O=c1cc(-c2ccccc2)oc2cc(O)cc(O)c12 [Compound D1, Chrysin]",Inhibitory activity against α-glucosidase (in words),[1],no inhibitory effect
same,inhibition at 50 µM,[1]; [2],< 20%
"O=c1c(O)c(-c2ccccc2)oc2cc(O)cc(O)c12 [Compound D2, Galangin]",inhibition at 200 µM,[1]; [2],21 ± 3%
"O=c1cc(-c2ccccc2)oc2cc(O)c(O)c(O)c12 [Compound D3, Baicalein]",IC50,[1]; [3],44 ± 3 µM
O=c1cc(-c2cccc(O)c2)oc2cc(O)cc(O)c12 [Compound D4],IC50,[1],89 ± 3 µM
"O=c1cc(-c2ccc(O)cc2)oc2cc(O)cc(O)c12 [Compound D5, Apigenin]",IC50,[1],82 ± 6 µM
"O=c1cc(-c2ccc(O)c(O)c2)oc2cc(O)cc(O)c12 [Compound D7, Luteolin]",IC50,[1]; [3],46 ± 6 µM
"O=c1c(O)c(-c2ccc(O)c(O)c2)oc2cc(O)cc(O)c12 [Compound D8, Quercetin]",Type of inhibition,yeast α-glucosidase,Competitive
same,Type of inhibition,α-glucosidase,mixed type inhibitor
"O=c1c(O)c(-c2ccc(O)cc2O)oc2cc(O)cc(O)c12 [Compound D9, Morin]",IC50,[1],32 ± 2 µM
O=c1c(Cl)c(-c2ccc(O)c(O)c2)oc2cc(O)cc(O)c12 [Compound D10],Ki,yeast α-glucosidase; [4],51 ± 6 µM
same,Type of inhibition,yeast α-glucosidase,Non-competitive
same,IC50,[1],21 ± 2 µM
O=c1cc(-c2ccc(O)c(O)c2)oc2cc(O)c(Cl)c(O)c12 [Compound D11],IC50,[1]; [3],~200 µM
O=c1cc(-c2ccc(O)c(O)c2)oc2c(Cl)c(O)cc(O)c12 [Compound D12],IC50,[1],55 ± 2 µM
O=c1c(Cl)c(-c2ccc(O)c(O)c2)oc2c(Cl)c(O)cc(O)c12 [Compound D13],IC50,[1],43 ± 3 µM
O=c1cc(-c2ccc(O)c(O)c2)oc2c(Cl)c(O)c(Cl)c(O)c12 [Compound D14],IC50,[1],34 ± 3 µM
"COc1ccc(-c2cc(=O)c3c(O)cc(O)cc3o2)cc1 [Compound D16, Acacetin]",IC50,[1]; [3],~200 µM
COc1ccc(-c2cc(=O)c3c(O)cc(O)cc3o2)cc1OC [Compound D17],inhibition at 200 µM,[1]; [2],< 20%
"C[C@@H]1O[C@@H](OC[C@H]2O[C@@H](Oc3c(-c4ccc(O)c(O)c4)oc4cc(O)cc(O)c4c3=O)[C@H](O)[C@@H](O)[C@@H]2O)[C@H](O)[C@H](O)[C@H]1O [Compound D18, Rutin]",Inhibitory activity against α-glucosidase (in words),[1],low activity
same,inhibition at 200 µM,[1]; [2],< 20%
"O=C1C[C@@H](c2ccc(O)cc2)Oc2cc(O)cc(O)c21 [Compound E1, Naringenin]",inhibition at 200 µM,[1]; [2],45 ± 3%
"O=C1C[C@@H](c2ccc(O)c(O)c2)Oc2cc(O)cc(O)c21 [Compound E2, Eriodictyol]",inhibition at 200 µM,[1]; [2],35 ± 4%
"O=C1c2c(O)cc(O)cc2OC(c2ccc(O)c(O)c2)C1O (stereo not drawn) [Compound E3, Taxifolin]",Ki,yeast α-glucosidase; [4],347 ± 15 µM
same,Type of inhibition,yeast α-glucosidase,Non-competitive
same,IC50,[1],~200 µM
